Results on 16 compounds are retold here after patent US5707559A, “Chemiluminescent 1,2-dioxetane compounds” (priority 1987, dated 1998).

The conditions of series [1]: for fluoride induced chemiluminescence in polar aprotic solvents: polar aprotic solvents such as acetonitrile. The protocol:
(§1) A solution of the dioxetane in a suitable solvent (e.g. o-xylene) was placed in the reaction vial as described above. The vial was placed in the sample holder which was maintained at a temperature such that thermal decomposition of the dioxetane was negligible. Instrument parameters were selected as above and data collection started. A solution of the releasing agent (e.g. base or fluoride) preferably in the reaction solvent was injected by syringe into the rapidly stirred dioxetane solution. The volume of releasing agent added was generally less than 5% of the total volume so that temperature fluctuation of the sample during the time course of the decay was minimal. The pseudo-first order decay was monitored for at least three half-lives.
2. Triggering the Chemiluminescence of Silyloxy-Substituted Dioxetanes with Fluorde Ion: Fluoride ion induced decomposition of 2c. […]. […]. A spectrum of the chemiluminescence obtained from the fluoride triggering of 2c in 1:1 aqueous/2-methoxyethanol is shown in FIG. 1 with the solid line. The fluorescence of the cleavage product (methyl 6-hydroxy-2-naphthoate) from the dioxetane is also shown with the dashed line for comparison.

For series [2], the system named is Aryl esterase (carboxylic ester hydrolase) from porcine liver. Briefly: Enzymatic triggering of chemiluminescence with aryl esterase. It is filed as biochemical. Particulars: for effect of added competing esterase substrate on light intensity: […] solution added at maximum emission of 2e, pH 7.6 phosphate buffer, 37° C. On the procedure:
(§2) A secondary stock solution of the acetate-protected dioxetane 2e was made by evaporating an aliquot of the methylene chloride stock equivalent to 10 micromoles of dioxetane and dissolving in 5.0 mL of 2-methoxyethanol to give a final concentration of 0.002M. […] Buffer solutions prepared in distilled water were 0.05M phosphate pH 7.6 and 8.0, 0.02M Tris (tris-hydroxymethylaminomethane maleate) pH 7.6, and pH 9.0 phosphate/borate buffer. Aryl esterase (also called carboxylic ester hydrolase (P-5221)) from porcine liver was purchased from Sigma Chemical Co. as a suspension of 11 mg of protein per mL in 3.2M (NH4)2 SO4 solution pH 8.0. Each mg of protein is equivalent to 260 Units, where 1 Unit is defined as the amount which will hydrolyze 1 micromole of ethyl butyrate in 1 minute at pH 8.0, 25° C. […] Injection of 1 μL of (0.26 units) of aryl esterase to the stirred solution caused a chemiluminescent signal to appear. The intensity reached a maximum at about 3 minutes and decayed over a 30 minute period.
3.) When distilled water was substituted for the Tris buffer, no chemiluminescence signal was observed, but on adding Tris buffer to this solution light emission similar to that above was produced. […] Addition of untreated enzyme preparation to this solution again produced light. […] The emission could be totally extinguished by addition of sufficient SDS. The decrease in light emission is not due to photophysical quenching of the excited state since thermal decomposition in the same solvent system at elevated temperatures results in readily detectable chemiluminescence.
This type of behavior explains the effect of the addition of the known esterase substrates α-naphthyl acetate and β-naphthyl acetate. […] A solution of 25 μL of the dioxetane stock (0.002M) in 3 mL of pH 7.6 phosphate buffer maintained at 37° C. was treated with 5 μL of the enzyme to initiate the chemiluminescence. At the point of maximum emission […] of 0.011M solution of either α- or β-naphthyl acetate were added.

Series [3] in a line: Thermal decomposition of dioxetanes monitored by decay of chemiluminescence (activation parameters in xylene). It is filed as physicochemical. The protocol: Rates of dioxetane decomposition were monitored by the decay of chemiluminescence of aerated solutions. A cylindrical Pyrex vial equipped with magnet stir bar was filled with 3-4 mL of the reaction solvent, sealed with a Teflon-lined screw cap and placed in the thermostatted sample block of the chemiluminescence-measuring apparatus (Black Box). Temperature control was provided by an external circulating water bath. Appropriate values for the instrument gain and optical slit size were selected. […]. The vial was sealed with a Teflon-lined screw cap to prevent evaporation when high temperatures were used. Measurement of the signal was begun by opening the shutter. The chemiluminescent decay was generally recorded for at least three half-lives. Calculation of the first-order rate constant, k, from the In(Intensity) vs. time data was performed by a computer program utilizing a standard least-squares treatment. The correlation coefficient, r, was typically at least 0.999 and varied less than 5% between replicate samples. The observed rate was not measurably concentration dependent.
Activation parameters for decomposition of the dioxetanes were calculated from plots of In k vs. 1/T (Arrhenius eq.) or In k/t vs. 1/T (Eyring eq.) by a standard least-squares linear regression analysis.
Activation Energies for Decomposition of Dioxetanes 2 in Xylene.

The format of series [4] is physicochemical. The conditions noted are these: 0.002M in 2-methoxyethanol, stored at 0° C. On the procedure: as §2
Stability of Enzyme and Dioxetane to Reaction Conditions. Many dioxetanes are known to be destroyed via a non-luminescent pathway by acid catalyzed processes in protic solvents. Similarly, amines are also known to cause the catalytic destruction of dioxetanes via an electron-transfer process. […]

Series [5] deals with T1, Acetylcholinesterase from human erythrocytes (Homo sapiens, UniProt P22303).
T1 construct: purchased Sigma Chemical Co. C-3389; host or cells: human erythrocytes
Briefly: Enzymatic triggering of chemiluminescence with acetylcholinesterase. It is filed as biochemical. The conditions noted are these: 0.05M phosphate buffer, pH 8.0, 37.0° C. From the text: Acetylcholinesterase, an enzyme of considerable biological significance, hydrolyzes acetylcholine to choline and acetic acid under physiological conditions. It was of interest to determine whether this enzyme would also initiate the chemiluminescent decomposition of the acetyl-protected dioxetane 2e by removal of the acetyl group. Acetylcholinesterase (C-3389) from human erythrocytes was purchased from Sigma Chemical Co. as a lyophilized powder containing phosphate buffer salts. […]. Addition of more dioxetane during this period generated more light.

Series [6] in a line: Triggering properties of further prepared dioxetanes (general statement).
For series [7] the following is noted: 25° C.; cited from earlier work.
Series [8] can be described thus: Triggering the chemiluminescence of hydroxy-substituted dioxetanes with base. The conditions noted are these: for base-induced chemiluminescence: base-induced decomposition, room temperature (2b: potassium t-butoxide in o-xylene, 25° C.). On the procedure: as §1
1. Triggering the Chemiluminescence of Hydroxy-Substituted Dioxetanes with Base: Potassium tert-butoxide induced decomposition of 2b. […].

Series [9] concerns alkaline phosphatase from Bovine Intestinal Mucosa. Briefly: Enzymatic triggering of chemiluminescence with alkaline phosphatase (Type VII-S). It is filed as biochemical. Particulars: 2-amino-2-methyl-1-propanol buffer pH 10.3, 1.5M, 37° C., 10 μL enzyme suspension. The protocol:
A cuvette containing 3 mL of a buffer solution of 2-amino-2-methyl-l-propanol (Sigma Chemical Co., pH=10.3, 1.5M) was placed in the black box at 37° C. A portion (200 μL) of the dioxetane stock solution (6d in CH2 Cl2) was added to this buffer solution. Subsequent addition of 10 μL of an alkaline phosphatase suspension [Sigma, Type VII-S from Bovine Intestinal Mucosa, suspension in 3.2M (NH4)2 SO4 ] gave rise to chemiluminescence over a period of approximately 2-3 min indicating the enzymatic triggering of the dioxetane.

Where [10] appears, read: 1 μL (0.26 units) aryl esterase, pH 7.6 Tris buffer, 25° C.

T1 sequence (P22303 other isoform, or with tags, fused parts or gaps): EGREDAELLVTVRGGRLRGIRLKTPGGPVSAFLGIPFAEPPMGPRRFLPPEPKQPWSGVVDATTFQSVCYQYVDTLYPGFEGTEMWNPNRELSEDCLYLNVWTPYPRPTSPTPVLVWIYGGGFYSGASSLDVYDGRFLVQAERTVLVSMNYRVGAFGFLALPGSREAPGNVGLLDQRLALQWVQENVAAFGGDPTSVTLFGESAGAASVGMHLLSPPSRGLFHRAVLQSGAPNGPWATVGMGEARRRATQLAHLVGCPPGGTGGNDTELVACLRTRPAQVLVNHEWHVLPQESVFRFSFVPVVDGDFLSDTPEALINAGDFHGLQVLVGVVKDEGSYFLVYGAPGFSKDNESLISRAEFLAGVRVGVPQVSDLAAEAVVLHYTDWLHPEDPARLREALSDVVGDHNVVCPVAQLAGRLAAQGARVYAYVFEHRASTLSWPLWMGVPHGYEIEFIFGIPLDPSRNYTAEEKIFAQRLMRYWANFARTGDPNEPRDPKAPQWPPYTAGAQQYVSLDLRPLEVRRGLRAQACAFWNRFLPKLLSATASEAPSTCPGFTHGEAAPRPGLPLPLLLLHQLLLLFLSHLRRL

For the compound `COC1(c2cccc(O[Si](C)(C)C(C)(C)C)c2)OOC12C1CC3CC(C1)CC2C3` (stereo not shown) [Dioxetane 8b, 4-(3-tert-Butyldimethylsilyloxyphenyl)-4-methoxyspiro[1,2-dioxetane-3,2'-adamantane]], in series [1], the “fluoride induced chemiluminescence in polar aprotic solvents” value is “bright chemiluminescence”.

In the case of `CC(=O)Oc1cccc2ccccc12` [α-naphthyl acetate, reference compound], the “effect of added competing esterase substrate on light intensity” value in series [2] is “rapid decrease in light intensity”.

As for `CC(C)(C)[Si](C)(C)Oc1ccc2c(c1)C1(OOC13C1CC4CC(C1)CC3C4)c1ccccc1-2` (stereo not shown) [Dioxetane 4b, Dispiro[adamantane-2,3'-[1,2]dioxetane-4',9"-(2-tert-butyldimethylsilyloxy-9-fluorene)]], the “fluoride induced chemiluminescence in polar aprotic solvents” value in series [1] is “bright chemiluminescence”.

Take `COC1(c2ccc3cc(OC(C)=O)ccc3c2)OOC12C1CC3CC(C1)CC2C3` (stereo not shown) [Dioxetane 2e, 4-(6-Acetoxy-2-naphthyl)-4-methoxyspiro[1,2-dioxetane-3,2'-adamantane]]: in series [3] (aliquot injected into 3 mL of o-xylene at 95° C.), the “duration of thermal chemiluminescence” value is “persisted for several hours”. For the same compound, in series [2] (setting [10]), the “period over which chemiluminescence decayed” value stood at 30 min and the “time at which chemiluminescence intensity reached a maximum” value is “about 3 minutes”. Moreover, the “maximum light intensity IMAX versus temperature” value in [2] (1 μL enzyme in Tris buffer at 25, 37 and 50° C.) was “increased with increasing temperature”. Further, the “chemiluminescence with enzyme medium only” value in series [2] (3 mL Tris buffer containing 5 μL of 3 M (NH4)2SO4, no enzyme, 25° C.) is “produced no chemiluminescence”. The “chemiluminescence signal without enzyme” value in [2] (150 μL (0.3 μmol) dioxetane stock in 3.0 mL pH 7.6 Tris buffer, 25° C., before enzyme) is “no chemiluminescence signal was detected”. Moreover, in series [2] (enzyme heated to 90° C. in Tris buffer and cooled to 25° C.), the “chemiluminescence with denatured enzyme” value is recorded as “resulted in no chemiluminescence”. Moreover, the “stability of stock solution on storage” value in series [4] was “stable indefinitely”. For the same compound, in series [5], the “duration of light emission” value worked out at 20 s.

In the case of `CC(=O)Oc1ccc2ccccc2c1` [β-naphthyl acetate, reference compound], the “effect of added competing esterase substrate on light intensity” value in [2] is reported as “rapid decrease in light intensity”.

Consider `COC1(c2ccc3cc(O[Si](c4ccccc4)(c4ccccc4)C(C)(C)C)ccc3c2)OOC12C1CC3CC(C1)CC2C3` (stereo not shown) [Dioxetane 2d], for which, in series [1], the “fluoride induced chemiluminescence in polar aprotic solvents” value was “bright chemiluminescence”. Besides, the “triggering properties” value in series [6] was “triggering properties similar to dioxetanes 2a-c and 2e”.

For the compound `CCCCCCCCCCCCOS(=O)(=O)[O-].[Na+]` [sodium lauryl sulfate (SDS), sodium lauryl sulfate, reference compound], the “effect of enzyme inhibitor on light emission” value in series [2] (added at maximum emission of 2e, Tris buffer, 1.5 μL enzyme) was “irreversible decrease in the intensity”.

On to `CC(C)(C)[Si](C)(C)Oc1ccc2c(c1)Oc1ccccc1C21OOC12C1CC3CC(C1)CC2C3` (stereo not shown) [Dioxetane 6b], for which, in series [1], the “fluoride induced chemiluminescence in polar aprotic solvents” value is reported as “bright chemiluminescence”. In addition, the “triggering properties” value in series [6] was “triggering properties similar to dioxetanes 2a-c and 2e”.

In the case of `Oc1ccc(C23OCCOC2(c2ccccc2)OO3)cc1` (stereo not shown) [deprotonated dioxetane (X=O^-)], the “decomposition rate relative to protonated form (X=OH)” value in [7] is reported as 5.7×10^6 times faster.

As to `COC1(c2cccc(O)c2)OOC12C1CC3CC(C1)CC2C3` (stereo not shown) [Dioxetane 8a], the “base-induced chemiluminescence” value in series [8] was “produced chemiluminescence at room temperature”.

On to `Oc1ccc2c(c1)Oc1ccccc1C21OOC12C1CC3CC(C1)CC2C3` (stereo not shown) [Dioxetane 6a], for which the “base-induced chemiluminescence” value in series [8] is “produced chemiluminescence at room temperature”. In [6], the “triggering properties” value is “triggering properties similar to dioxetanes 2a-c and 2e”.

As to `CC(=O)Oc1ccc2c(c1)Oc1ccccc1C21OOC12C1CC3CC(C1)CC2C3` (stereo not shown) [Dioxetane 6c], the “triggering properties” value in [6] is “triggering properties similar to dioxetanes 2a-c and 2e”.

As to `Oc1ccc2c(c1)C1(OOC13C1CC4CC(C1)CC3C4)c1ccccc1-2` (stereo not shown) [Dioxetane 4a], the “base-induced chemiluminescence” value in series [8] is reported as “produced chemiluminescence at room temperature”. The “triggering properties” value in series [6] was “triggering properties similar to dioxetanes 2a-c and 2e”.

As to `O=P(O)(O)Oc1ccc2c(c1)Oc1ccccc1C21OOC12C1CC3CC(C1)CC2C3` (stereo not shown) [Dioxetane 6d, Dispiro[adamantane-2,3'-[1,2]dioxetane-4',9"-(3-phosphate-9H-xanthene]], the “period of chemiluminescence after enzyme addition” value in series [9] lay within 2 to 3 min.

For `COC1(c2ccc3cc(O)ccc3c2)OOC12C1CC3CC(C1)CC2C3` (stereo not shown) [Dioxetane 2b, 4-(6-Hydroxy-2-naphthyl)-4-methoxyspiro[1,2-dioxetane-3,2'-adamantane]], the “base-induced chemiluminescence” value in series [8] is given as “intense blue chemiluminescence”. Moreover, in [8] (methanol with KOH as base, or o-xylene with n-BuLi as base), the “base-induced chemiluminescence with other bases” value is “bright blue chemiluminescence with similar decay rates”.

`COC1(c2ccc3cc(O[Si](C)(C)C(C)(C)C)ccc3c2)OOC12C1CC3CC(C1)CC2C3` (stereo not shown) [Dioxetane 2c]: the “Ea (activation energy for decomposition)” value in [3] (decomposition in xylene) was 27.0. Further, the “half-life of chemiluminescence decay, fluoride ion induced” value in series [1] (10^-4 M dioxetane, 0.01M tetrabutylammonium fluoride in 2-methoxyethanol, room temperature, pseudo-first order, 100 µM) was “about 20 minutes”. For the same compound, the “fluoride induced chemiluminescence” value in series [1] (tetrabutylammonium fluoride in 2-methoxyethanol) is given as “Blue chemiluminescence was produced”.
